Source: patent US11466044B2 (WAYNE STATE UNIVERSITY, priority 2017, dated 2022)
Where a name gives a salt, the structure may show the parent alone. Read-outs that look alike come from different tables or passages of the source.

Assays:
[1] = test system: Acinetobacter baumannii pittii AG225; assay: MIC by broth microdilution, Acinetobacter baumannii; format: cell-based; settings: strain AG225 Acinetobacter baumannii pittii
[2] = test system: wild type bacterial ribosomes; assay: in-vitro translation assay, bacterial ribosomes; format: biochemical; settings: for IC50: bacterial ribosome, Table 4 (Example 3), read-out: IC50 Bac; for selectivity for the bacterial ribosome over mitochondrial (wild type, A1555G mutant) and cytosolic ribosomes, in words: compared with the parent compound
Text: (§1) The antiribosomal activity of these compounds was investigated with cell-free translation assays using both wild type bacterial ribosomes and hybrid ribosomes carrying eukaryotic decoding A sites enabling the prediction of selectivity.

N. gonorrhoeae = assay: Disk diffusion, N. gonorrhoeae; format: cell-based; settings: Neisseria gonorrhoeae
[3] = test system: Enterobacter cloacae AG290; assay: MIC by broth microdilution, Enterobacter cloacae; format: cell-based; settings: strain AG290 Enterobacter cloacae; read-out: MIC AG290 E. cloacae
M. abscessus = assay: MIC by broth microdilution, M. abscessus; format: cell-based; settings: Mycobacteroides abscessus
[4] = test system: mitochondrial ribosome (human chimeric); format: biochemical; settings: for Selectivity for Binding to the Bacterial Ribosome over the Mitochondrial Ribosome: Table 3 (Example 3); for IC50: mitochondrial, Table 4 (Example 3), read-out: IC50 Mit
Text: as §1

[5] = test system: cytosolic ribosome (human chimeric); format: biochemical; settings: for Selectivity for Binding to the Bacterial Ribosome over the Cytosolic Ribosome: Table 3 (Example 3); for IC50: cytosolic, Table 4 (Example 3), read-out: IC50 Cyt
Text: as §1

[6] = test system: Klebsiella pneumonia AG215; assay: MIC by broth microdilution, Klebsiella pneumonia; format: cell-based; settings: Klebsiella pneumoniae; strain AG215 Klebsiella pneumonia; read-out: MIC AG215 K. pneumon
P aeruginosa = assay: MIC by broth microdilution, P aeruginosa isolates; format: cell-based, Pseudomonas aeruginosa; settings: strain AG220 Pseudomonas aeruginosa ATCC27853; read-out: MIC AG220 P. aerugin
MRSA = assay: MIC by broth microdilution, MRSA isolates; format: cell-based; settings: Staphylococcus aureus, MRSA, Table 1 (Example 3)
[7] = test system: A1555G mutant mitochondrial ribosome (human chimeric); assay: in-vitro translation assay, human chimeric ribosomes, A1555G mutant mitochondrial decoding site; format: biochemical; settings: Table 3 (Example 3)
Text: as §1

E coli wild type = assay: MIC by broth microdilution, wild type E coli; format: cell-based; settings: for MIC: Escherichia coli
M. smegmatis SZ380 = assay: MIC by broth microdilution, M. smegmatis; settings: Mycolicibacterium smegmatis
[8] = test system: E coli carrying specific resistance determinants; assay: MIC by broth microdilution, E coli carrying specific resistance determinants; format: cell-based; settings: for MIC: Escherichia coli
[9] = ATCC19977, ATCC 19977 WT, Table 5 (Example 3), read-out: MIC M. abscessus ATCC 19977 WT
[10] = read-out: MIC M. abscessus engineered Δeis2
[11] = ATCC, Table 4 (Example 3), read-out: MIC M. abscessus ATCC
[12] = Clin. Isol., Table 4 (Example 3), read-out: MIC M. abscessus Clin. Isol.
[13] = clinical isolate AG038, read-out: MIC MRSA AG038
[14] = clinical isolate AG039, read-out: MIC MRSA AG039
[15] = clinical isolate AG042, read-out: MIC MRSA AG042
[16] = AG006 Wild type, Table 2 (Example 3), read-out: MIC E coli AG006 Wild type
[17] = AG104 Wild type, Table 2 (Example 3), read-out: MIC E coli AG104 Wild type
[18] = ATCC25922, strain AG212 E. coli (ATCC25922), read-out: MIC AG212 E. coli
[19] = WT, Table 4 (Example 3), read-out: MIC E. coli WT
[20] = WT, Table 5 (Example 3), read-out: MIC E. coli WT
[21] = clinical isolate AG001, Table 1 (Example 3), read-out: MIC E coli AG001
[22] = clinical isolate AG003, Table 1 (Example 3), read-out: MIC E coli AG003
[23] = clinical isolate AG055, Table 1 (Example 3), read-out: MIC E coli AG055
[24] = SZ380, read-out: MIC M. smegmatis SZ380 WT, SZ380 WT, Table 5 (Example 3)
[25] = SZ380, read-out: MIC SZ380 M. smegmatis, strain SZ380 Mycobacterium smegmatis
[26] = read-out: MIC E coli AG106 AAC(2′)
[27] = read-out: MIC E. coli AAC(2′) AG106
[28] = read-out: MIC E. coli AAC(2′) pH434
[29] = read-out: MIC E. coli AG106 AAC(2′)-Ia
[30] = read-out: MIC E. coli pGB2armA armA
[31] = read-out: MIC E. coli pH434 AAC(2′)-Ib

Row | Structure (SMILES) | MIC [1] [µg/mL] | IC50 [2] [µM] | selectivity for the bacterial ribosome over mitochondrial (wild type, A1555G mutant) and cytosolic ribosomes, in words [2] | zone of inhibition at 25 nmol/disc (N. gonorrhoeae) [mm] | MIC [3] [µg/mL] | MIC (M. abscessus; [9]) [µg/mL] | MIC (M. abscessus; [10]) [µg/mL] | MIC (M. abscessus; [11]) [µg/mL] | MIC (M. abscessus; [12]) [µg/mL] | Selectivity for Binding to the Bacterial Ribosome over the Mitochondrial Ribosome [4] | IC50 [4] [µM] | Selectivity for Binding to the Bacterial Ribosome over the Cytosolic Ribosome [5] | IC50 [5] [µM] | MIC [6] [µg/mL] | MIC (P aeruginosa) [µg/mL] | MIC (MRSA; [13]) [µg/mL] | MIC (MRSA; [14]) [µg/mL] | MIC (MRSA; [15]) [µg/mL] | Selectivity for Binding to the Bacterial Ribosome over the Mutant Mitochondrial Ribosome [7] | MIC (E coli wild type; [16]) [µg/mL] | other results
1 | CCNC1C(OC2C(N)CC(N)C(O)C2OC2OC(CO)C(OC3OC(CN)C(O)C(O)C3N)C2O)OC(CN)C(O)C1O (stereo not drawn) [Compound 172, 2′-N-Ethyl-neomycin acetate salt] | 1 | 0.01 | increased selectivity for the bacterial ribosome | 9 | 0.5 to 1 | 0.25 | 0.063 | 0.25 | 0.5 | 850 | 11 | 3111 | 43 | 0.5 | > 32 | 0.5 | > 32 | > 32 | 111 | 0.5 | MIC (E coli wild type; [17]): 0.5 µg/mL; MIC (E coli wild type; [18]): 1 µg/mL; MIC (E coli wild type; [19]): 0.5 to 1 µg/mL; MIC (E coli wild type; [20]): 0.5 to 1 µg/mL; MIC (E coli wild type; [21]): 1 to 2 µg/mL; MIC (E coli wild type; [22]): 1 µg/mL; MIC (E coli wild type; [23]): 1 µg/mL; MIC (M. smegmatis SZ380; [24]): < 0.063 µg/mL; MIC (M. smegmatis SZ380; [25]): < 0.0625 µg/mL; MIC [8, 26]: 0.5 µg/mL; MIC [8, 27]: 0.5 µg/mL; MIC [8, 28]: 1 µg/mL; MIC [8, 29]: 0.5 µg/mL; MIC [8, 30]: 1 µg/mL; MIC [8, 31]: 1 µg/mL
2 | NCC1OC(OC2C(N)CC(N)C(O)C2OC2OC(CO)C(OC3OC(CN)C(O)C(O)C3N)C2O)CC(O)C1O (stereo not drawn) [Compound 173, 2′-Deamino-neomycin acetate salt] | 1 | 0.03 | increased selectivity for the bacterial ribosome | 10 | 1 | 4 | 0.125 | 4 | 8 | 831 | 22 | 3188 | 85 | 0.5 | > 64 | 1 | 32 | 32 | 31 | 1 | MIC (E coli wild type; [17]): 0.5 to 1 µg/mL; MIC (E coli wild type; [18]): 1 µg/mL; MIC (E coli wild type; [19]): 1 µg/mL; MIC (E coli wild type; [20]): 1 µg/mL; MIC (E coli wild type; [21]): 2 µg/mL; MIC (E coli wild type; [22]): 1 to 2 µg/mL; MIC (E coli wild type; [23]): 2 µg/mL; antibacterial activity, in words (E coli wild type; MRSA and E coli, compared with the parent compound): little to no loss of antibacterial activity; MIC (M. smegmatis SZ380; [24]): 0.25 µg/mL; MIC (M. smegmatis SZ380; [25]): 0.25 µg/mL; effect of the AAC(2′) resistance determinant, in words ([8]; AAC(2′)): overcomes the effect of AAC(2′); MIC [8, 26]: 1 µg/mL; MIC [8, 27]: 1 µg/mL; MIC [8, 28]: 8 µg/mL; MIC [8, 29]: 1 µg/mL; MIC [8, 30]: 1 µg/mL; MIC [8, 31]: 8 µg/mL
